Holding throughout (test): ≥ marks a high value that may be exact or a test limit, other limits are often not marked, values filed in µg/mL are converted to µM
In assay [1] the test system is Enterococcus faecium.
Assay [2] has as its system Acinetobacter baumannii.
The subject of assay [3] is Escherichia coli ATCC 25922.
The test system of assay [4] is Klebsiella pneumoniae.
The test system of assay [5] is Streptococcus pneumoniae.
For assay [6], the system named is Pseudomonas aeruginosa.
For assay [7], the system named is Staphylococcus aureus ATCC 43300.
Assay [8] has as its system Candida albicans ATCC 2002.
In assay [9] the test system is Bacillus subtilis ATCC 6633.
For assay [10], the system named is Shigella dysenteriae.
Assay [11] concerns Bacillus cereus.
The subject of assay [12] is Staphylococcus aureus ATCC 2592.
Assay [13] relates to Candida albicans.
Assay [14] has as its system Staphylococcus aureus.
In assay [15] the test system is Bacillus subtilis.
Assay [16] concerns Escherichia coli.
The subject of assay [17] is Escherichia coli DC2.
Assay [18] concerns Corynebacterium xerosis C875.
For assay [19], the system named is Staphylococcus epidermidis C621.
Assay [20] concerns Escherichia coli UB1005.
The subject of assay [21] is Pseudomonas aeruginosa ATCC 27853.
Assay [22] concerns Escherichia coli ML-35p.
The subject of assay [23] is Staphylococcus aureus ATCC 25923.

Values after ≈ are worked out from the molar mass of the structure shown. Bounds are passed on as bounds.

By MIC is commonly meant the lowest concentration found to suppress growth. Lower therefore signals a more susceptible organism. As for `CC[C@H](C)[C@H](NC(=O)CNC(=O)[C@H](Cc1cnc[nH]1)NC(=O)CNC(=O)CN)C(=O)N[C@@H](CCCN=C(N)N)C(=O)N[C@@H](CCCN=C(N)N)C(=O)N[C@H](C(=O)N[C@H](C(=O)N[C@@H](CCCN=C(N)N)C(=O)N[C@@H](CCCCN)C(=O)N[C@H](C(=O)N[C@H](C(=O)N[C@@H](Cc1cnc[nH]1)C(=O)N[C@H](C(=O)N[C@H](C(=O)N[C@@H](CCCCN)C(=O)N[C@@H](CCCCN)C(N)=O)[C@@H](C)CC)[C@@H](C)CC)[C@@H](C)CC)[C@@H](C)CC)[C@@H](C)CC)[C@@H](C)CC` [GGHGIRRIIRKIIHIIKK], the minimum inhibitory concentration (MIC) in assay [1] is 16 µM (≈ 33.7 µg/mL); in [2] it was 2.7 µM (≈ 5.69 µg/mL); in assay [3], more than 16 µM; in [4] it was 16 µM (≈ 33.7 µg/mL); in assay [5] it was 16 µM (≈ 33.7 µg/mL); in assay [6], more than 16 µM. Also, in assay [7], the MIC worked out at 16 µM (≈ 33.7 µg/mL).
With `CC[C@H](C)[C@H](NC(=O)CN)C(=O)N[C@@H](CC(C)C)C(=O)N[C@@H](CC(=O)O)C(=O)N1CCC[C@H]1C(=O)N[C@H](C(=O)N[C@@H](CCCCN)C(=O)N[C@@H](C)C(=O)N[C@@H](Cc1ccccc1)C(=O)N[C@@H](C)C(=O)N[C@@H](CCCCN)C(=O)N[C@@H](C)C(=O)N[C@@H](C)C(=O)NCC(N)=O)[C@@H](C)CC` [GILDPIKAFAKAAG], the minimum inhibitory concentration (MIC) in assay [8] was not below 32.1 µM; in [9], 8.02 µM (≈ 11 µg/mL); in assay [10], 4.01 µM (≈ 5.5 µg/mL); in assay [3], 16 µM (≈ 22 µg/mL); in assay [11], 16 µM (≈ 22 µg/mL); in assay [12], 4.01 µM (≈ 5.5 µg/mL). Moreover, the MIC in assay [6] was 8.02 µM (≈ 11 µg/mL).
On to `CC[C@H](C)[C@H](NC(=O)CNC(=O)[C@H](CO)NC(=O)[C@H](CC(C)C)NC(=O)[C@H](CC(C)C)NC(=O)CN)C(=O)N[C@@H](CC(C)C)C(=O)NCC(=O)N[C@@H](C)C(=O)NCC(=O)N[C@@H](CCCCN)C(=O)N[C@@H](Cc1cnc[nH]1)C(=O)N[C@H](C(=O)N[C@H](C(=O)N[C@H]1CSSC[C@@H](C(=O)O)NC(=O)[C@H](CC(C)C)NC(=O)CNC(=O)[C@H](CO)NC(=O)[C@H](CC(C)C)NC(=O)CNC1=O)C(C)C)[C@@H](C)CC` [GLLSGILGAGKHIVCGLSGLC], for which the MIC in assay [8] came out at 3.81 µM (≈ 7.49 µg/mL); in [10], 1.27 µM (≈ 2.5 µg/mL); in assay [3], 2.54 µM (≈ 5 µg/mL); in assay [13], 4.76 µM (≈ 9.36 µg/mL); in [14] it was 38.1 µM (≈ 74.9 µg/mL); in assay [15] it was 4.76 µM (≈ 9.36 µg/mL). Moreover, the results for the MIC in assay [16] and in [12] were more than 50.8 µM and 1.27 µM (≈ 2.5 µg/mL), respectively.
On to `C[C@H](NC(=O)[C@H](C)NC(=O)[C@H](C)NC(=O)[C@H](CCCN=C(N)N)NC(=O)[C@H](C)NC(=O)[C@H](C)NC(=O)[C@H](C)NC(=O)[C@H](CCCCN)NC(=O)[C@@H](N)CCCCN)C(=O)N[C@@H](C)C(=O)N[C@@H](C)C(=O)N[C@@H](CCCN=C(N)N)C(=O)N[C@@H](C)C(=O)N[C@@H](C)C(=O)N[C@@H](Cc1c[nH]c2ccccc12)C(=O)N[C@@H](C)C(=O)N[C@@H](C)C(=O)N[C@@H](CCCN=C(N)N)C(=O)N[C@@H](C)C(=O)N[C@@H](C)C(=O)N[C@@H](C)C(=O)N[C@@H](CCCCN)C(=O)N[C@@H](CCCCN)C(=O)N[C@@H](CCCCN)C(=O)N[C@@H](CCCCN)C(N)=O` [KKAAARAAAAARAAWAARAAAKKKK], for which the MIC in assay [17] was not below 32 µM; in assay [18], 8 µM (≈ 20.1 µg/mL); in [19] it was not below 64 µM; in [20] it was not below 64 µM.
With `C[C@H](NC(=O)[C@H](C)NC(=O)[C@H](C)NC(=O)[C@H](CO)NC(=O)[C@H](C)NC(=O)[C@H](C)NC(=O)[C@H](C)NC(=O)[C@H](CCCCN)NC(=O)[C@@H](N)CCCCN)C(=O)N[C@@H](C)C(=O)N[C@@H](C)C(=O)N[C@@H](CO)C(=O)N[C@@H](C)C(=O)N[C@@H](C)C(=O)N[C@@H](Cc1c[nH]c2ccccc12)C(=O)N[C@@H](C)C(=O)N[C@@H](C)C(=O)N[C@@H](CO)C(=O)N[C@@H](C)C(=O)N[C@@H](C)C(=O)N[C@@H](C)C(=O)N[C@@H](CCCCN)C(=O)N[C@@H](CCCCN)C(=O)N[C@@H](CCCCN)C(=O)N[C@@H](CCCCN)C(N)=O` [KKAAASAAAAASAAWAASAAAKKKK], the MIC in [17], in assay [18], in [19] and in [20] was not below 64 µM throughout.
Take `CC(C)[C@H](NC(=O)[C@H](C)NC(=O)[C@H](C)NC(=O)[C@H](C)NC(=O)[C@H](CCCCN)NC(=O)[C@@H](N)CCCCN)C(=O)N[C@@H](C)C(=O)N[C@@H](C)C(=O)N[C@@H](C)C(=O)N[C@@H](C)C(=O)N[C@@H](C)C(=O)N[C@H](C(=O)N[C@@H](C)C(=O)N[C@@H](C)C(=O)N[C@@H](Cc1c[nH]c2ccccc12)C(=O)N[C@@H](C)C(=O)N[C@@H](C)C(=O)N[C@H](C(=O)N[C@@H](C)C(=O)N[C@@H](C)C(=O)N[C@@H](C)C(=O)N[C@@H](CCCCN)C(=O)N[C@@H](CCCCN)C(=O)N[C@@H](CCCCN)C(=O)N[C@@H](CCCCN)C(N)=O)C(C)C)C(C)C` [KKAAAVAAAAAVAAWAAVAAAKKKK]: the MIC is not below 32 µM in assay [17], 0.5 µM (≈ 1.17 µg/mL) in assay [18], not below 32 µM in assay [19] and not below 32 µM in assay [20].
As for `C[C@H](NC(=O)[C@H](C)NC(=O)[C@H](Cc1ccccc1)NC(=O)[C@H](C)NC(=O)[C@H](C)NC(=O)[C@H](Cc1c[nH]c2ccccc12)NC(=O)[C@H](C)NC(=O)[C@H](C)NC(=O)[C@H](Cc1ccccc1)NC(=O)[C@H](C)NC(=O)[C@H](C)NC(=O)[C@H](CCCN=C(N)N)NC(=O)[C@H](CCCN=C(N)N)NC(=O)[C@H](CCCN=C(N)N)NC(=O)[C@H](CCCN=C(N)N)NC(=O)[C@H](CCCN=C(N)N)NC(=O)[C@@H](N)CCCN=C(N)N)C(N)=O` [RRRRRRAAFAAWAAFAA], the MIC in assay [17] amounted to 0.5 µM (≈ 1 µg/mL); in assay [18] it was 0.5 µM (≈ 1 µg/mL); in assay [3], 4 µM (≈ 8.01 µg/mL); in assay [21], 8 µM (≈ 16 µg/mL); in [19], 4 µM (≈ 8.01 µg/mL); in assay [20], 1 µM (≈ 2 µg/mL).
In the case of `CC[C@H](C)[C@H](NC(=O)CNC(=O)[C@H](CCSC)NC(=O)CNC(=O)[C@H](C)NC(=O)[C@H](CO)NC(=O)[C@H](CCCCN)NC(=O)[C@H](C)NC(=O)[C@H](CC(C)C)NC(=O)[C@H](CC(=O)O)NC(=O)[C@@H](NC(=O)[C@H](C)NC(=O)[C@@H](NC(=O)[C@@H](NC(=O)[C@H](CCCCN)NC(=O)[C@@H](NC(=O)[C@H](CCCCN)NC(=O)[C@H](CC(=O)O)NC(=O)[C@H](CCCN=C(N)N)NC(=O)[C@@H](NC(=O)[C@@H](N)CO)[C@@H](C)CC)[C@@H](C)CC)[C@@H](C)O)[C@@H](C)CC)[C@@H](C)CC)C(=O)N[C@@H](CC(C)C)C(=O)N[C@@H](CCCCN)C(=O)N[C@H](C(=O)N[C@@H](CC(C)C)C(=O)N[C@H](C(=O)N[C@H]1CSSC[C@@H](C(=O)O)NC(=O)[C@H](CO)NC(=O)[C@H](CCCCN)NC(=O)[C@H](CC(=O)O)NC(=O)[C@H](CC(C)C)NC(=O)[C@H](CCCCN)NC1=O)[C@@H](C)CC)[C@@H](C)O` [SIRDKIKTIAIDLAKSAGMGILKTLICKLDKSC], the MIC in assay [8] is 4.23 µM (≈ 15 µg/mL); in [22], 7.05 µM (≈ 25 µg/mL); in assay [21], more than 28.2 µM; in assay [15], 5.28 µM (≈ 18.7 µg/mL); in [23], 4.65 µM (≈ 16.5 µg/mL).

The values above are taken from DBAASP.
